Data published in patent US9617286B2, “Fungicide N-[(trisubstitutedsilyl)methyl]-carboxamide derivatives” (BAYER INTELLECTUAL PROPERTY GMBH, priority 2011, dated 2017).

Legend:
[1] = log P by HPLC on reversed-phase column (C 18), EEC Directive 79/831 Annex V.A8; format: physicochemical; settings: 40° C., 0.1% aqueous formic acid and acetonitrile, linear gradient 10% to 90% acetonitrile
Protocol: In table 1, the log P values were determined in accordance with EEC Directive 79/831 Annex V.A8 by HPLC (High Performance Liquid Chromatography) on a reversed-phase column (C 18), using the method described below:
Temperature: 40° C.; Mobile phases: 0.1% aqueous formic acid and acetonitrile; linear gradient from 10% acetonitrile to 90% acetonitrile.
Calibration was carried out using unbranched alkan-2-ones (comprising 3 to 16 carbon atoms) with known log P values (determination of the log P values by the retention times using linear interpolation between two successive alkanones). lambda-max-values were determined using UV-spectra from 200 nm to 400 nm and the peak values of the chromatographic signals.

Puccinia recondita = assay: In vivo preventive test on Puccinia recondita (brown rust on wheat); settings: preventive spray, 500 ppm of active ingredient, grading 12 days after contamination
Protocol: Wheat plants (“Scipion” variety), sown in starter cups on a 50/50 peat soil pozzolana substrate and grown at 22° C., are treated at the 1 leaf stage (10 cm height) by spraying with the active ingredient prepared as described above. Plants, used as controls, are treated with the mixture of acetone/tween/DMSO/water not containing the active material. After 24 hours, the plants are contaminated by spraying the leaves with an aqueous suspension of Puccinia recondita spores (100 000 spores per mL). The spores are collected from an infected plant and are suspended in water containing 2.5 mL/L of Tween 80 at 10%. The contaminated wheat plants are incubated for 24 hours at 20° C. and at 100% relative humidity, and then for 10 days at 20° C. and at 70-80% relative humidity. Grading (% of efficacy) is carried out 12 days after the contamination, in comparison with the control plants.

Septoria tritici = assay: In vivo preventive test on Septoria tritici (wheat); settings: preventive spray, 500 ppm of active ingredient, grading 24 days after contamination
Protocol: Wheat plants (“Scipion” variety), sown in starter cups on a 50/50 peat soil pozzolana substrate and grown at 22° C., are treated at the 1 leaf stage (10 cm height) by spraying with the active ingredient prepared as described above. Plants, used as controls, are treated with the mixture of acetone/tween/DMSO/water not containing the active material. After 24 hours, the plants are contaminated by spraying the leaves with an aqueous suspension of cryopreserved Septoria tritici spores (500 000 spores per mL). The contaminated wheat plants are incubated for 72 hours at 18° C. and at 100% relative humidity, and then for 21 days at 90% relative humidity. Grading (% of efficacy) is carried out 24 days after the contamination, in comparison with the control plants.

Uromyces appendiculatus = assay: In vivo preventive test on Uromyces appendiculatus (bean rust); settings: bean plants, preventive spray, 500 ppm of active ingredient, grading 11 days after contamination
Protocol: Bean plants (“Saxa” variety), sown in starter cups on a 50/50 peat soil pozzolana substrate and grown at 24° C., are treated at the 2 leaf stage (9 cm height) by spraying with the active ingredient prepared as described above. Plants, used as controls, are treated with the mixture of acetone/tween/DMSO/water not containing the active material. After 24 hours, the plants are contaminated by spraying the leaves with an aqueous suspension of Uromyces appendiculatus spores (150 000 spores per mL). The spores are collected from infected plants and are suspended in water containing 2.5 mL/L of Tween 80 at 10%. The contaminated bean plants are incubated for 24 hours at 20° C. and at 100% relative humidity, and then for 10 days at 20° C. and at 70-80% relative humidity. Grading (% of efficacy) is carried out 11 days after the contamination, in comparison with the control plants.

Sphaerotheca fuliginea = assay: In vivo preventive test on Sphaerotheca fuliginea (powdery mildew on cucurbits); settings: gherkin plants, preventive spray, 500 ppm of active ingredient, grading 12 days after contamination
Protocol: Gherkin plants (“Vert petit de Paris” variety), sown in starter cups on a 50/50 peat soil-pozzolana substrate and grown at 24° C., are treated at the Z11 cotyledon stage by spraying with the active ingredient prepared as described above. Plants, used as controls, are treated with the mixture of acetone/tween/DMSO/water not containing the active material. After 24 hours, the plants are contaminated by spraying the cotyledons with an aqueous suspension of Sphaerotheca fuliginea spores (100 000 spores per mL). The spores are collected from infected plants. The contaminated gherkin plants are incubated at about 20° C. and at 70-80% relative humidity. Grading (% of efficacy) is carried out 12 days after the contamination, in comparison with the control plants.

Pyrenophora teres = assay: In vivo preventive test on Pyrenophora teres (barley); settings: preventive spray (DMF/alkylaryl polyglycol ether), 500 ppm of active ingredient, evaluated 7-9 days after inoculation
Protocol: (§1) Solvent: 49 parts by weight of N,N-dimethylformamide Emulsifier: 1 part by weight of alkylaryl polyglycol ether To produce a suitable preparation of active compound, 1 part by weight of active compound is mixed with the stated amounts of solvent and emulsifier, and the concentrate is diluted with water to the desired concentration. To test for preventive activity, young plants are sprayed with the preparation of active compound at the stated rate of application. One day after this treatment, the plants are inoculated with an aqueous spore suspension of Pyrenophora teres. The plants remain for 48 hours in an incubation cabinet at 22° C. and a relative atmospheric humidity of 100%. Then the plants are placed in a greenhouse at a temperature of approximately 20° C. and a relative atmospheric humidity of approximately 80%.

Alternaria brassicae = assay: In vivo preventive test on Alternaria brassicae (leaf spot on radish); settings: preventive spray, 500 ppm of active ingredient, grading 6 days after contamination
Protocol: Radish plants (“Pernod Clair” variety), sown in starter cups on a 50/50 peat soil pozzolana substrate and grown at 17° C., are treated at the cotyledon stage by spraying with the active ingredient prepared as described above. Plants, used as controls, are treated with the mixture of acetone/tween/DMSO/water not containing the active material. After 24 hours, the plants are contaminated by spraying the cotyledons with an aqueous suspension of Alternaria brassicae spores (50 000 spores per mL). The spores are collected from a 15-day-old culture. The contaminated radish plants are incubated at 20° C. and at 100% relative humidity. Grading (% of efficacy) is carried out 6 days after the contamination, in comparison with the control plants.

Leptosphaeria nodorum = assay: In vivo preventive test on Leptosphaeria nodorum (wheat); settings: preventive spray, 500 ppm of active ingredient, evaluated 7-9 days after inoculation
Protocol: as §1, with “sprayed with a preparation of” for “sprayed with the preparation of”, “suspension of Leptosphaeria nodorum. The plants” for “suspension of Pyrenophora teres. The plants”, “of approximately 22° C. and” for “of approximately 20° C. and”, “of approximately 90%.” for “of approximately 80%.”

Botrytis cinerea = assay: In vivo preventive test on Botrytis cinerea (cucumber); settings: preventive spray (DMF/alkylaryl polyglycol ether), 500 ppm of active ingredient, evaluated 5-6 days after inoculation
Protocol: (§2) Solvent: 49 parts by weight of N,N-dimethylformamide Emulsifier: 1 part by weight of alkylaryl polyglycol ether To produce a suitable preparation of active compound, 1 part by weight of active compound is mixed with the stated amounts of solvent and emulsifier, and the concentrate is diluted with water to the desired concentration. To test for preventive activity, young plants are sprayed with the preparation of active compound at the stated rate of application. One day after this treatment, the plants are inoculated with an aqueous spore suspension of Botrytis cinerea. The plants remain for two days in an incubation cabinet at approximately 22° C. and a relative atmospheric humidity of 100%. Then the plants are placed in an incubation cabinet at approximately 14° C. and a relative atmospheric humidity of 96%.

Alternaria solani = assay: In vivo preventive test on Alternaria solani (tomato); settings: preventive spray, 500 ppm of active ingredient, evaluated 7 days after inoculation
Protocol: as §2, with “Alternaria solani.” for “Botrytis cinerea.”, “one day” for “two days”, “20°” for “14°”

Row | logP [1] | SMILES | Efficacy (Puccinia recondita) | Efficacy (Septoria tritici) | Efficacy (Uromyces appendiculatus) | Efficacy (Sphaerotheca fuliginea) | Efficacy (Pyrenophora teres) | Efficacy (Alternaria brassicae) | Efficacy (Leptosphaeria nodorum) | Efficacy (Botrytis cinerea) | Efficacy (Alternaria solani)
1 | 4.18 | C[Si](C)(CN(C(=O)c1nccnc1C(F)(F)F)C1CC1)c1ccccc1F [Example 14] | 98% | 93% | 84% | 98% | 100% | 95% |  |  | 
2 | 4.56 | C[Si](C)(CN(C(=O)c1nccnc1C(F)(F)F)C1CC1)c1ccccc1Cl [Example 26] | 92% | 100% |  | 93% | 95% |  | 80% | 99% | 
3 | 4.56 | C[Si](C)(CN(C(=O)c1nccnc1C(F)(F)F)C1CC1)c1cccc(Cl)c1 [Example 32] |  |  |  |  | 95% |  | 90% | 94% | 89%
4 | 4.95 | CC[Si](C)(CN(C(=O)c1nccnc1C(F)(F)F)C1CC1)c1ccccc1Cl (centres unmarked) [Example 44] | 75% | 86% |  | 94% | 93% | 75% |  |  | 
5 | 4.77 | C[Si](C)(CN(C(=O)c1nccnc1C(F)(F)F)C1CC1)c1cccc2ccccc12 [Example 72] |  |  |  |  | 95% |  | 80% |  | 89%
6 | 4.80 | C[Si](C)(CN(C(=O)c1nccnc1C(F)(F)F)C1CC1)c1ccc2ccccc2c1 [Example 77] |  |  |  |  | 100% |  | 95% | 95% | 78%
7 | 4.44 | C[Si](C)(Cc1ccccc1)CN(C(=O)c1nccnc1C(F)(F)F)C1CC1 [Example 93] |  |  |  |  | 70% |  | 80% | 100% | 75%
8 | 4.82 | C[Si](C)(Cc1ccccc1Cl)CN(C(=O)c1nccnc1C(F)(F)F)C1CC1 [Example 99] |  |  |  |  | 70% |  | 70% |  | 
9 | 4.82 | C[Si](C)(Cc1cccc(Cl)c1)CN(C(=O)c1nccnc1C(F)(F)F)C1CC1 [Example 105] |  |  |  |  | 70% |  |  | 93% | 

Further lines, the compound ahead of its results:

Row | SMILES | logP [1] | Efficacy (Puccinia recondita) | Efficacy (Septoria tritici) | Efficacy (Uromyces appendiculatus) | Efficacy (Sphaerotheca fuliginea) | Efficacy (Pyrenophora teres) | Efficacy (Alternaria brassicae) | Efficacy (Leptosphaeria nodorum) | Efficacy (Botrytis cinerea) | Efficacy (Alternaria solani)
10 | C[Si](C)(CNC(=O)c1cccnc1C(F)(F)F)c1ccccc1 [Example 2] | 2.92 | 88% | 100% | 100% | 83% |  |  |  |  | 
11 | CCc1ccccc1[Si](C)(C)CN(C(=O)c1cccnc1C(F)(F)F)C1CC1 [Example 20] | 4.51 | 88% | 93% |  | 100% | 100% | 75% |  |  | 
12 | C[Si](C)(CN(C(=O)c1cccnc1C(F)F)C1CC1)c1cccc(Cl)c1 [Example 34] | 3.87 |  |  |  |  | 100% |  | 80% | 85% | 89%
13 | CC[Si](C)(CN(C(=O)c1cccnc1C(F)F)C1CC1)c1ccccc1Cl (centres unmarked) [Example 36] | 4.21 | 81% | 90% |  | 94% |  | 90% |  |  | 
14 | C[Si](C)(CN(C(=O)c1cccnc1C(F)(F)F)C1CC1)c1cc(F)ccc1Cl [Example 48] | 4.34 | 88% | 93% |  | 98% | 97% | 75% |  |  | 
15 | C[Si](C)(CN(C(=O)c1cccnc1Cl)C1CC1)c1cc(F)ccc1Cl [Example 50] | 3.99 | 75% |  |  | 98% | 97% | 75% |  |  | 
16 | C[Si](C)(CN(C(=O)c1cccnc1C(F)F)C1CC1)c1cccc2ccccc12 [Example 74] | 4.04 |  |  |  |  | 95% |  | 70% |  | 78%
17 | C[Si](C)(CN(C(=O)c1cccnc1C(F)F)C1CC1)c1ccc2ccccc2c1 [Example 79] | 4.11 |  |  |  |  | 95% |  | 90% | 70% | 89%
18 | C[Si](C)(CN(C(=O)c1nccnc1C(F)(F)F)C1CC1)c1ccsc1 [Example 86] | 3.94 |  |  |  |  | 90% |  |  | 80% | 75%
19 | C[Si](C)(Cc1ccccc1)CN(C(=O)c1cccnc1C(F)F)C1CC1 [Example 92] | 3.80 |  |  |  |  | 90% |  | 80% | 98% | 78%
